The results in this text go back to PubChem BioAssay (NCI).

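1) Cells in 96-well plates. 2) Compound, 48 h, 5 concentrations. 3) Linear interpolation between surrounding doses. 4) Unreached endpoint = highest concentration. The concentration for 50% growth inhibition is given as GI50. TGI: concentration producing complete growth inhibition.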

Common to all, as to test: NCI-60 cell line screen, 48 h
In experiment [1] the test system is MCF7 breast.
The test system of experiment [2] is NCI-H460 lung.
The subject of experiment [3] is BT-549 breast.
Experiment [4] concerns SF-295 CNS.
In experiment [5] the test system is NCI-H226 lung.
For experiment [6], the system named is NCI-H522 lung.
Experiment [7] has as its system SF-539 CNS.
The subject of experiment [8] is OVCAR-8 ovarian.
For experiment [9], the system named is MALME-3M melanoma.
Experiment [10] has as its system HCT-116 colon.

For `C[C@H]1O[C@@H](O[C@H]2[C@@H](O)C[C@H](O[C@H]3[C@@H](O)C[C@H](O[C@H]4CC[C@]5(C)C6C[C@@H](O)[C@]7(C)[C@@H](C8=CC(=O)OC8)CC[C@]7(O)C6CC[C@@H]5C4)O[C@@H]3C)O[C@@H]2C)C[C@H](O)[C@@H]1O` (stereo partly drawn), the GI50 in experiment [1] is 0.0521 µM; in experiment [2], 0.0197 µM; in experiment [3], 0.0246 µM; in experiment [4], 0.0595 µM; in experiment [5], 0.102 µM; in experiment [6], 0.015 µM. Moreover, the GI50 in experiment [7] was 0.0648 µM; in [8], 0.0788 µM; in [9], 0.115 µM; in experiment [10], 0.0207 µM. Moreover, the TGI in experiment [1] was determined as 1.69 µM; in experiment [2] it was 0.0748 µM; in experiment [3] it was 0.0928 µM; in [4] it was 0.233 µM; in experiment [5] it was 0.191 µM; in experiment [6], 0.0695 µM. The TGI in experiment [7] was 0.139 µM; in [8] it was 0.198 µM; in [9], 0.262 µM; in experiment [10] it was 0.0972 µM.
Consider `NC(=O)c1cccc(N)c1`, for which the GI50 in experiment [1], in experiment [2], in [3], in [4], in experiment [5] and in experiment [6] was greater than 100 µM throughout. The GI50 in experiment [7], in experiment [8], in experiment [9] and in experiment [10] was greater than 100 µM throughout. For the same compound, the TGI in experiment [1], in experiment [2], in experiment [3], in experiment [4], in [5] and in [6] was greater than 100 µM in each case. Moreover, the TGI in experiment [7], in experiment [8], in experiment [9] and in experiment [10] was greater than 100 µM each time.
Regarding `Cc1ccccc1NC(=O)N/C(N)=N/c1nc2ccccc2s1`, the GI50 in experiment [1] is 0.0359 µM; in experiment [2], 0.113 µM; in experiment [3], 0.128 µM; in experiment [4], 0.0292 µM; in experiment [5], 0.589 µM; in [6], 0.0427 µM. Further, the GI50 in [7] was 0.041 µM; in [8] it was 0.0979 µM; in experiment [9], 0.0693 µM; in experiment [10], 0.0456 µM. The TGI was greater than 100 µM in [1]; greater than 100 µM in experiment [2]; 1.17 µM in experiment [4]; greater than 100 µM in [5]; greater than 100 µM in [6]; 0.725 µM in experiment [7]. The values for the TGI in [8] and in experiment [9] were greater than 43.2 µM and greater than 100 µM, respectively.
`O=[N+]([O-])c1ccc(Oc2cccnc2)c([N+](=O)[O-])c1`: the GI50 in experiment [1] is 3.74 µM; in experiment [2], 10.5 µM; in experiment [3], 3.73 µM; in [4] it was 18.6 µM; in experiment [5], 2.97 µM; in experiment [6], 3.02 µM. Moreover, the GI50 is 3.21 µM in experiment [7], 3.52 µM in [8], 2.83 µM in experiment [9] and 2.43 µM in [10]. In addition, the TGI in experiment [1] was 17.6 µM; in [2], 47.8 µM; in experiment [3], 29 µM; in experiment [4] it was greater than 100 µM; in experiment [5], 25.5 µM; in [6], 9.55 µM. Moreover, the TGI is 12.1 µM in experiment [7], greater than 100 µM in [8], 17.6 µM in experiment [9] and 6.22 µM in experiment [10].
On to `CN(C)c1cc2c(Nc3ccc4nc(Cc5ccccc5)[nH]c4c3)ncnc2cn1`, for which the GI50 in experiment [1] was greater than 15.3 µM; in [2] it was 13.1 µM; in [3] it was greater than 18.2 µM; in experiment [4] it was greater than 12.7 µM; in experiment [5], greater than 18 µM; in experiment [6], 10.9 µM. Further, the GI50 in experiment [7] is 14.4 µM; in experiment [8], greater than 17.4 µM; in experiment [9], greater than 16.3 µM; in experiment [10], 13.1 µM. The TGI in [1] was greater than 25 µM; in experiment [2], greater than 25 µM; in [3], greater than 25 µM; in experiment [4], greater than 18.9 µM; in experiment [5], greater than 25 µM; in experiment [6], greater than 25 µM. The TGI in [7], in experiment [8], in experiment [9] and in experiment [10] was greater than 25 µM each time.
As to `N#CC(NC12CC3CC(CC(C3)C1)C2)c1ccccc1` (stereo not drawn), the TGI in [1], in experiment [2], in [3], in experiment [4], in experiment [5] and in experiment [6] was greater than 100 µM each time. Besides, the TGI in [7], in [8], in experiment [9] and in [10] was greater than 100 µM in each case.
With `O=[N+]([O-])c1ccccc1S(=O)(=O)c1ccccc1[N+](=O)[O-]`, the TGI in experiment [1], in [2], in experiment [3], in [4], in [5] and in experiment [6] was greater than 100 µM throughout. Also, the TGI in [7] is greater than 96.8 µM; in [8], greater than 56.2 µM; in [9] it was greater than 100 µM; in experiment [10], greater than 100 µM.
As for `O=C(O[C@H]1CN[C@H](C#Cc2cc3ncnc(Nc4ccc(Cc5ccccc5)cc4)c3s2)C1)N1CCOCC1`, the GI50 was 5.63 µM in experiment [1]; 7.52 µM in [2]; 4.74 µM in [3]; greater than 13.6 µM in experiment [4]; 5.01 µM in [5]; 0.482 µM in [6]. The GI50 in [7] is 4.42 µM; in experiment [8] it was 5.33 µM; in experiment [9] it was 4.71 µM; in experiment [10], 4.03 µM. Further, the TGI in experiment [1] is greater than 20.6 µM; in [2], greater than 25 µM; in experiment [3], 10.6 µM; in [4], greater than 25 µM; in [5], 15.7 µM; in experiment [6] it was 4.2 µM. Further, the TGI is 11.7 µM in [7], greater than 23.4 µM in experiment [8], greater than 20.3 µM in experiment [9] and 8.16 µM in [10].
Consider `Oc1ccc(Cl)cc1Cc1cc(Cl)cc(Cc2cc(Cl)ccc2O)c1O`, for which the TGI in experiment [1] was 6.98 µM; in experiment [2] it was 4.96 µM; in experiment [3], 9.61 µM; in [4], 7.36 µM; in experiment [5], 7.07 µM; in experiment [6], 3.32 µM. For the same compound, the TGI in [7] was found to be 4.37 µM; in experiment [8], 16.8 µM; in experiment [9], 5.56 µM; in experiment [10], 9.33 µM.
Turning to `O=C(c1ccc(F)c(F)c1Nc1ccc(I)cc1F)N1CC(O)([C@H]2CCCCN2)C1`, the GI50 in experiment [1] is 6.56 µM; in [2], 4.19 µM; in experiment [3] it was 10.9 µM; in experiment [4], 14.5 µM; in [5], 4.8 µM; in experiment [6] it was 8.01 µM. Moreover, the GI50 was 10.2 µM in experiment [7], 12 µM in [8], 0.019 µM in experiment [9] and 0.649 µM in experiment [10]. Further, the TGI in experiment [1] came out at 21.3 µM; in [2] it was 20.2 µM; in experiment [3] it was 23.9 µM; in experiment [4], 28.9 µM; in [5], 22.8 µM; in experiment [6], 22.9 µM. Also, the TGI is 22.8 µM in experiment [7], 26.9 µM in experiment [8], 0.0976 µM in [9] and 11.7 µM in experiment [10].
As to `O=C(/C=C\c1cccc([N+](=O)[O-])c1)c1ccccc1`, the GI50 in [1] is 1.81 µM; in [2] it was 7.54 µM; in [3], 2.85 µM; in experiment [4], 7.68 µM; in experiment [5] it was 18.7 µM; in experiment [6], 1.46 µM. The GI50 in experiment [7] was 3.4 µM; in [8] it was 3.66 µM; in [9] it was 2.07 µM; in experiment [10] it was 1.72 µM. Also, the TGI was found to be 9.71 µM in [1]; 28.5 µM in experiment [2]; 12.1 µM in [3]; 29.5 µM in experiment [4]; 45.9 µM in experiment [5]; 3.93 µM in experiment [6]. The TGI stood at 9.81 µM in experiment [7], 17 µM in [8], 5.01 µM in experiment [9] and 5.07 µM in [10].
Take `Cn1c(=O)c(Sc2ccccc2F)cc2cnc(NC3CCOCC3)nc21`: the GI50 in experiment [1], in [2], in experiment [3], in [4], in experiment [5] and in experiment [6] was greater than 25 µM each time. In addition, the GI50 in [7], in experiment [8], in experiment [9] and in [10] was greater than 25 µM in each case. For the same compound, the TGI in experiment [1], in experiment [2], in experiment [3], in experiment [4], in experiment [5] and in experiment [6] was greater than 25 µM each time. Moreover, the TGI in [7], in experiment [8], in [9] and in [10] was greater than 25 µM each time.
As for `O=C(/C=C/c1ccccc1Cl)c1ccc(O)cc1`, the GI50 is 2.45 µM in experiment [1]; 4.4 µM in [2]; 2.3 µM in [3]; 8.97 µM in experiment [4]; 15.2 µM in experiment [5]; 9.33 µM in [6]. Besides, the GI50 in [7] is 5.22 µM; in [8], 8.3 µM; in experiment [9], 16.3 µM; in experiment [10], 2.98 µM. Also, the TGI in experiment [1] worked out at 7.54 µM; in [2], 16.8 µM; in [3], 6.76 µM; in experiment [4] it was 23.7 µM; in [5], 42.8 µM; in [6], 23.9 µM. Besides, the TGI in experiment [7] was found to be 12.2 µM; in experiment [8] it was 26.3 µM; in [9], 31.1 µM; in experiment [10], 10.8 µM.
